We go through 18 compounds from patent US20120142771A1, “BIPHENYLACETAMIDE DERIVATIVE” (Dainippon Sumitomo Pharma Co., Ltd., priority 2008, published 2012).

Assay [1] concerns maximum electroshock seizure (MES) model. The assay can be described thus: Maximum electroshock seizure (MES) model test. The assay is classed as in vivo, mice. Conditions: Mus musculus, po, 1 h, Slc: ddY male mice, 3 per group, electrical stimulation 1 hour after administration, inhibition of hind limb extension, read-out: MES (positive number/tested number) (converted); for responders at 50 mg/kg: 50 mg/kg oral; for responders at 100 mg/kg: 100 mg/kg oral. From the text:
In order to evaluate the antiepileptic activity of each drug, maximum electroshock seizure (MES) model, subcutaneously pentetrazol-injected model (scPTZ), and amygdala kindling model in rats were used because they show a good clinical prediction.
Test 1: Test with Maximum Electroshock Seizure (MES) Model
Test 1 evaluates the anticonvulsant action of medicaments. Animal model used herein represents the clinical phenotypes of generalized tonic seizure and secondarily generalized tonic-clonic seizure. Test compounds (50 or 100 mg/kg) were orally administered to Slc: ddY male mice (3 mice in each group, body weight 20-30 g). After an hour of administration, their corneas were electrically stimulated (60 Hz, 25 mA, 0.2 second) to induce tonic convulsion (tonic extensor in their hind limbs). […] To the control mice, 0.5% tragacanth solution or 0.5% methylcellulose solution was administered.

The subject of assay [2] is subcutaneously pentetrazol-injected model (scPTZ). The assay can be described thus: Subcutaneously pentetrazol-injected model (scPTZ) test. In kind it is in vivo, mice. Particulars: Mus musculus, po, 1 h, Slc: ddY male mice, 3 per group, pentetrazol 85 mg/kg s.c. after 1 hour, observed 30 minutes for clonic convulsion, read-out: scPTZ (positive number/tested number) (converted); for responders at 100 mg/kg: 100 mg/kg oral; for responders at 50 mg/kg: 50 mg/kg oral. From the text: In order to evaluate the antiepileptic activity of each drug, maximum electroshock seizure (MES) model, subcutaneously pentetrazol-injected model (scPTZ), and amygdala kindling model in rats were used because they show a good clinical prediction. […] Test with Subcutaneously Pentetrazol-Injected Model (scPTZ) Similar to Test 1, Test 2 evaluates the anticonvulsant action of medicaments. However, unlike Test 1, animal model used herein represents the clinical phenotypes of generalized absence seizure and myoclonic seizure. Test compounds (50 or 100 mg/kg) were orally administered to Slc: ddY male mice (3 mice in each group, body weight 20-30 g). After an hour, pentetrazol (85 mg/kg) was subcutaneously administered. […] To the control mice, 0.5% tragacanth solution or 0.5% methylcellulose solution was administered.

Take `CNC(=O)Cc1ccccc1-c1cccc(F)c1` [Example 26, 2-(3′-fluorobiphenyl-2-yl)-N-methylacetamide]: in assay [1], the responders at 50 mg/kg was 100% and the responders at 100 mg/kg is 100%. For the same compound, the responders at 100 mg/kg in assay [2] is 0%.

In the case of `CCNC(=O)Cc1ccccc1-c1cccc(F)c1` [Example 27], in assay [1], the responders at 50 mg/kg was 0% and the responders at 100 mg/kg was 100%. Also, the responders at 100 mg/kg in assay [2] was 33.3%.

On to `CNC(=O)Cc1ccccc1-c1ccccc1F` [Example 28, 2-(2′-fluorobiphenyl-2-yl)-N-methylacetamide], for which the responders at 50 mg/kg in assay [1] and in assay [2] was 0% each time. In addition, the responders at 100 mg/kg in assay [1] was 100%; in assay [2] it was 66.7%.

Turning to `CCNC(=O)Cc1ccccc1-c1ccccc1F` [Example 29], the responders at 50 mg/kg in assay [1] is 0%. Moreover, the results for the responders at 100 mg/kg in assay [1] and in assay [2] were 66.7% and 33.3%, respectively.

For the compound `CN(C)C(=O)Cc1ccccc1-c1ccccc1F` [Example 30, 2-(2′-fluorobiphenyl-2-yl)-N,N-dimethylacetamide], in assay [1], the responders at 50 mg/kg was 0% and the responders at 100 mg/kg was 100%. Also, in assay [2], the responders at 50 mg/kg was 33.3% and the responders at 100 mg/kg was 66.7%.

Turning to `CNC(=O)Cc1ccccc1-c1cccc(C)c1` [Example 31, N-methyl-2-(3′-methylbiphenyl-2-yl)-acetamide], the responders at 100 mg/kg in assay [1] is 0%; in assay [2], 66.7%. Also, the responders at 50 mg/kg in assay [2] is 33.3%.

Take `NC(=O)Cc1ccc(C(F)(F)F)cc1-c1ccccc1` [Example 32]: in assay [1], the responders at 50 mg/kg was 33.3% and the responders at 100 mg/kg is 100%. In addition, in assay [2], the responders at 100 mg/kg is 0%.

As for `CNC(=O)Cc1ccc(C(F)(F)F)cc1-c1ccccc1` [Example 33], in assay [1], the responders at 50 mg/kg was 33.3%. Moreover, the figures for the responders at 100 mg/kg in assay [1] and in assay [2] were 66.7% and 33.3%, respectively.

`NC(=O)Cc1cc(OC(F)(F)F)ccc1-c1ccccc1` [Example 34]: the responders at 100 mg/kg in assay [1] is 0%. For the same compound, in assay [2], the responders at 50 mg/kg is 33.3% and the responders at 100 mg/kg is 66.7%.

In the case of `NC(=O)Cc1cc(Cl)ccc1-c1ccccc1` [Example 35], in assay [1], the responders at 50 mg/kg was 0% and the responders at 100 mg/kg was 66.7%. The responders at 100 mg/kg in assay [2] is 0%.

Take `CNC(=O)Cc1cc(Cl)ccc1-c1ccccc1` [Example 36]: in assay [1], the responders at 50 mg/kg was 0% and the responders at 100 mg/kg is 100%. In addition, in assay [2], the responders at 100 mg/kg is 33.3%.

`CCNC(=O)Cc1cc(Cl)ccc1-c1ccccc1` [Example 37]: the responders at 100 mg/kg in assay [1] is 0%; in assay [2], 33.3%.

For the compound `CN(C)C(=O)Cc1cc(Cl)ccc1-c1ccccc1F` [Example 38], the responders at 100 mg/kg in assay [1] is 0%; in assay [2] it was 100%. Moreover, the responders at 50 mg/kg in assay [2] was 0%.

For `CNC(=O)Cc1ccc(F)cc1-c1ccccc1` [Example 40], in assay [1], the responders at 50 mg/kg is 33.3% and the responders at 100 mg/kg is 100%. Besides, the responders at 100 mg/kg in assay [2] is 0%.

As for `CNC(=O)Cc1ccc(F)cc1-c1ccccc1F` [Example 42], in assay [1], the responders at 100 mg/kg was 33.3%. Also, in assay [2], the responders at 50 mg/kg was 33.3% and the responders at 100 mg/kg is 66.7%.

As for `NC(=O)Cc1ccc(F)cc1-c1cccc(Cl)c1` [Example 43], the results for the responders at 50 mg/kg in assay [1] and in assay [2] were 66.7% and 33.3%, respectively. The responders at 100 mg/kg in assay [1] and in assay [2] was 66.7% throughout.

Regarding `NC(=O)Cc1cc(F)ccc1-c1ccccc1` [Example 44, 2-(4-fluorobiphenyl-2-yl)acetamide], in assay [1], the responders at 50 mg/kg was 100% and the responders at 100 mg/kg is 100%. The responders at 100 mg/kg in assay [2] is 0%.

Regarding `CNC(=O)Cc1cc(F)ccc1-c1ccccc1` [Example 45, 2-(4-fluorobiphenyl-2-yl)-N-methylacetamide], in assay [1], the responders at 50 mg/kg is 100% and the responders at 100 mg/kg is 100%. The responders at 100 mg/kg in assay [2] is 0%.
